According to PMC5025780, “Copper(II) ions affect the gating dynamics of the 20S proteasome: a molecular and in cell study” (Scientific Reports, 2016):

What was measured:
[1] = system: T1, human 20S proteasome (hCP); test: Native gel electrophoresis of purified hCP (assembly); settings: 1 h incubation with 1 and 5 μM Cu(II)
T1 construct: purchased Boston Biochem (Cambridge, MA, USA)
Description: Currently, there are only few molecules known to inhibit the ChT-L, C-L, and T-L proteasome activities to the same extent. In principle, these agents are thought to inactivate the CP by upstream events involving protein damage (e.g. oxidation, disassembling of the enzyme into α and β subunits)[29][30] or, as recently reported, to allosteric effects involving proteasome gating. To address these issues, we performed native gel electrophoresis of purified hCP after 1 h incubation with 1 and 5 μM Cu(II) ions (Fig. 1B). […] Thus, we can exclude that Cu(II)-treated hCP could disassemble in α and β subunits. […] To this aim we i) assayed the presence of Cu(I) species in Cu(II)-loaded hCP samples by UV spectroscopy using bathocuproine disulfonic acid sodium salt (BCS) (see Figure S1 of Supporting Information) and ii) monitored the ROS production using fluorescein as a probe whose fluorescence intensity decreases upon reacting with ROS[32]. […]
Proteasome-enriched fractions were subjected to non denaturing native gel electrophoresis, as described elsewhere. […] Peptidolytic activity of proteasome-enriched fractions from cell lysates was evaluated after incubating the gels in a Suc-LLVY-AMC substrate dissolved in 50 mM Tris pH 8.0, 5 mM MgCl2, 1 mM DTT, 1 mM ATP, at 37 °C for 15 min. […] Images of the gels were acquired by Chemidoc (Biorad), and fluorescent bands were quantified by using the Image J software.

[2] = system: proteasome ChT-L activity in HeLa cells; test: Proteasome-Glo Chymotrypsin-Like Cell-Based Assay in intact HeLa cells; parameters: species or system human; settings: for Copper-induced proteasome inhibition in cells pretreated with NAC: 100 μM NAC pretreatment 24 h
Description: HeLa cells (human cervix carcinoma), were cultured in Dulbecco’s MEM medium (Life Technologies) supplemented with 10% of fetal calf serum (FCS, Life Technologies), glutamax (Invitrogen), 100 U/mL penicillin, 100 µg/mL streptomycin. Cells were routinely grown as stocks in 75 cm^2 flasks in a humidified atmosphere (95% air, 5% CO2) at 37 °C.
The ChT-L proteolytic activity of the proteasome in intact HeLa cells were determined using the Proteasome-Glo™ Chymotrypsin-Like Cell-Based Assay (Promega) according to manufacturer's instructions. Briefly, 800 cells/well were grown in 384 sterile multiwells (optical plate and white walls) in 50 μl of DMEM + FBS10% + PenStrep 1%. After 4 h of cell seeding, Cu(II) was added in cell medium in a concentration range 10–80 μM for 24 h. Then the medium was removed and replaced with FCS free medium. To determine whether or not the residual proteolytic measured was dependent on to proteasome rather than other proteases, we performed a control experiment with epoxomicin, a specific proteasome inhibitor. Epoxomicin (5 μM) was added to the cells 60 min before the proteasome activity assay. The substrate for the β5 ChT-L activity (Suc-LLVY-aminoluciferin) was dissolved in Proteasome-Glo™ Cell-Based Reagent and added to intact cells. After 2 min of shaking for permeabilization and further 10 min of incubation at 25 °C, luminescence was measured with a Varioskan Flash (Thermo) micro plate reader. Proteasome activity in intact cells was also measured by using the internally quenched fluorogenic substrate H2N-K-K(Dabcyl)-K-K-L-L-V-Y-G-E(Edans)-G-R-K-K-R-R-Q-R-R-R- (TED) as described elsewhere. […] The peptide purity was determined by MALDI-TOF experiments carried out with a Bruker Reflex III time-of-flight (TOF) mass spectrometer operating in the reflection mode, and the matrix used was α-cyano 4-hydroxycinnamic. […] TED internalization and cleavage in live HeLa cells was assayed by fluorescence microscopy (see Figure S8 of Supplementary Information).

[3] = system: T2, 26S/20S proteasome assembly in Hela cells; test: Non-denaturing gel with in-gel peptidase activity of HeLa lysates (20S/26S ratio); assay type: cell-based, human; settings: 24 h
T2 construct: endogenous in cells; host or cells: HeLa cells
Description: Proteasome-enriched fractions were subjected to non denaturing native gel electrophoresis, as described elsewhere. Briefly, 100 μg of fractionated Hela cells lysates, pretreated for 24 h with 0, 20 or 80 μM Cu(II), were run on a 3–12% non-denaturing, gradient polyacrylamide gel (Invitrogen, Carlsbad, CA) according to a protocol reported elsewhere. hCP (2 μM) treated for 2 h with 0 μM, 20 μM and 80 μM of Cu (II) was used as reference control. Peptidolytic activity of proteasome-enriched fractions from cell lysates was evaluated after incubating the gels in a Suc-LLVY-AMC substrate dissolved in 50 mM Tris pH 8.0, 5 mM MgCl2, 1 mM DTT, 1 mM ATP, at 37 °C for 15 min. Proteasome bands were identified by the release of highly fluorescent free AMC which allowed us to identify the proteasome holo and subcomplexes. Images of the gels were acquired by Chemidoc (Biorad), and fluorescent bands were quantified by using the Image J software.

What does the source list for [Cl][Cu][Cl] [Cu(II), CuCl2]?
hCP assembly by native gel [1]: only a single band is present at 700 kDa; Copper-induced proteasome inhibition in cells pretreated with NAC ([2]; Cu(II) 80 μM): did not overcome proteasome inhibition; ChT-L activity in HeLa cells (normalized to untreated controls) ([2]; Cu(II) 20 to 80 μM in medium, 24 h): 60%; Copper-induced proteasome inhibition in cells pretreated with NAC ([2]; Cu(II) 20–40 μM): completely abolished; Intensity of CP, CP-RP and CP-RP2 bands ([3]; 20 μM Cu(II)): does not vary with respect to control; Intensity of CP, CP-RP1 and CP-RP2 bands ([3]; 80 μM Cu(II)): the amount of CP increases
